Results: article PMC6119644 (Bioorganic & medicinal chemistry letters, 2018)

What follows are molecules tested against GOT1 (Homo sapiens, UniProt P17174) (assay: MDH coupled GOT1 enzymatic assay). Conditions: MDH coupled GOT1 enzymatic assay.
Format: biochemical

Sequence of GOT1 (P17174 whole entry): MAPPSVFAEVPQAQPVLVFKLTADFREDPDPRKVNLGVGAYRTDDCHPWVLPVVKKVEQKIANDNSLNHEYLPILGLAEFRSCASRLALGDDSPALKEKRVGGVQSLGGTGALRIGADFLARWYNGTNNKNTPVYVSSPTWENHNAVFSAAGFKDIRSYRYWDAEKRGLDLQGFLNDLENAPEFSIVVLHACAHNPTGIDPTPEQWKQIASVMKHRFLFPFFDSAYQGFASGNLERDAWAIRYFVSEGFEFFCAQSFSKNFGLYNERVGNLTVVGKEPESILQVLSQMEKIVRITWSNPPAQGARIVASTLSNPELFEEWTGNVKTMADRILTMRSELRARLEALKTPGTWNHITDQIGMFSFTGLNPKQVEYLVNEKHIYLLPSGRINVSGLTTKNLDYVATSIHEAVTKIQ

| SMILES | GOT1 inhibition activity (in words) |
| --- | --- |
| O=C(NCCc1c[nH]c2ccccc12)Nc1ccccc1 [Compound 3a] | no significant activity |
| O=C(Nc1ccccc1)N1CCN(c2cccc3[nH]ncc23)CC1 [Compound 1j] | lack of observed activity |
| O=C(Nc1ccccc1)N1CCN(c2cccc3ncccc23)CC1 [Compound 1k] | lack of observed activity |

Same assay, conditions: relative to 1a; GOT1 inhibition

| SMILES | enhancement in potency |
| --- | --- |
| O=C(Nc1ccc(Cl)cc1)N1CCN(c2cccc3[nH]ccc23)CC1 [Compound 2c] | ~ 10 fold |
| O=C(Nc1ccc(C(F)(F)F)cc1)N1CCN(c2cccc3[nH]ccc23)CC1 [Compound 2d] | ~ 10 fold |
| O=C(Nc1cccc(C(F)(F)F)c1)N1CCN(c2cccc3[nH]ccc23)CC1 [Compound 2g] | ~ 10 fold |
